As usually defined, the MIC is the lowest concentration found to suppress growth.

Converted amounts (≈) assume the structure as drawn.

This is an account of results in ChEMBL document CHEMBL3751774, “Synthesis and anti-tubercular activity of conformationally-constrained and bisquinoline analogs of TMC207” (Medchemcomm, 2015).

The first assay relates to Mycobacterium tuberculosis. As to the kind of experiment: Antitubercular activity against multi drug resistant Mycobacterium tuberculosis isolate 1 assessed as growth inhibition after 4 weeks. The note with it: isolate 1, 672 h. In kind it is functional.
On to `C=CCCOc1nc2ccccc2cc1C(c1cc2ccccc2nc1OCCC=C)C(O)(CCN(C)C)c1ccc(Br)cc1` (stereo not drawn), for which the MIC was 3.12 µM (≈ 2.08 µg/mL).

`COc1nc2ccccc2cc1C(c1cc2ccccc2nc1OC)C(O)(CCN(C)C)c1cccc(Br)c1` (stereo not drawn): the MIC was found to be 3.12 µM (≈ 1.83 µg/mL).

With `COc1nc2ccccc2cc1C(c1cc2ccccc2nc1OC)C(O)(CCN(C)C)c1ccccc1` (stereo not drawn), the MIC turned out to be 3.12 µM (≈ 1.58 µg/mL).

In the case of `COc1nc2ccccc2cc1C(c1cc2ccccc2nc1OC)C(O)(CCN(C)C)c1ccc2ccccc2c1` (stereo not drawn), the MIC came out at 3.12 µM (≈ 1.74 µg/mL).

A further assay has as its system Mycobacterium tuberculosis. As to the kind of experiment: Antitubercular activity against multi drug resistant Mycobacterium tuberculosis isolate 2 assessed as growth inhibition after 4 weeks. In kind it is functional. The settings on record: isolate 2, 672 h.
`C=CCCOc1nc2ccccc2cc1C(c1cc2ccccc2nc1OCCC=C)C(O)(CCN(C)C)c1ccc(Br)cc1` (stereo not drawn): the MIC was 3.12 µM (≈ 2.08 µg/mL).

As for `COc1nc2ccccc2cc1C(c1cc2ccccc2nc1OC)C(O)(CCN(C)C)c1cccc(Br)c1` (stereo not drawn), the MIC was determined as 3.12 µM (≈ 1.83 µg/mL).

Regarding `COc1nc2ccccc2cc1C(c1cc2ccccc2nc1OC)C(O)(CCN(C)C)c1ccccc1` (stereo not drawn), the MIC is 3.12 µM (≈ 1.58 µg/mL).

As for `COc1nc2ccccc2cc1C(c1cc2ccccc2nc1OC)C(O)(CCN(C)C)c1ccc2ccccc2c1` (stereo not drawn), the MIC was 3.12 µM (≈ 1.74 µg/mL).
